Strand notation (5' to 3'): a small letter for the sugar, then the base; units joined by * are phosphorothioate-linked, units joined directly phosphodiester-linked; [ ] holds rarer units or linkages, { } end groups; capitals alone tell only the bases. e = 2'-O-(2-methoxyethyl) (MOE); [5mC] = 5-methylcytosine; d = 2'-deoxy (DNA)
Tests used:
human PKK mRNA [1] = experiment: Antisense inhibition of human PKK mRNA in HepaRG cells, 3,000 nM (Example 1); assay type: cell-based; conditions: relative to untreated control cells
Summary of the method: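 HepaRG cells, 20,000 per well, were electroporated with 3,000 nM 5-10-5 MOE gapmer (phosphorothioate, 5-methylcytosine). After about 24 h, PKK mRNA was measured by qRT-PCR with primer probe set RTS3454 and normalised to RIBOGREEN total RNA. Values are percent inhibition versus untreated cells.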

human PKK mRNA [2] = experiment: Dose-dependent antisense inhibition of human PKK in HepaRG cells, 0.12-10.00 uM (Example 4); assay type: cell-based; conditions: electroporation, ~16 h
Experimental: Cells were plated at a density of 20,000 cells per well and transfected using electroporation with 0.12 μM, 0.37 μM, 1.11 μM, 3.33 μM, and 10.00 μM concentrations of antisense oligonucleotide. After a treatment period of approximately 16 hours, RNA was isolated from the cells and PKK mRNA levels were measured by quantitative real-time PCR. Human PKK primer probe set RTS3454 was used to measure mRNA levels. PKK mRNA levels were adjusted according to total RNA content, as measured by RIBOGREEN®. The antisense oligonucleotides were tested in a series of experiments that had similar culture conditions. Results are presented as percent inhibition of PKK, relative to untreated control cells.
The half maximal inhibitory concentration (IC50) of each oligonucleotide is also presented.

[3] = Table 2, PKK mRNA, HepaRG cells, 3,000 nM, electroporation, ~24 h
[4] = Table 1, PKK mRNA, HepaRG cells, 3,000 nM, electroporation, ~24 h
[5] = Table 4, HepaRG cells, electroporation with 3,000 nM antisense oligonucleotide, approx. 24 hours, PKK mRNA by RT-PCR (RTS3454)

Substance	percent inhibition of PKK at 0.12 μM (human PKK mRNA [2]; Table 32, 0.12 μM)	percent inhibition of PKK at 0.37 μM (human PKK mRNA [2]; Table 32, 0.37 μM)	percent inhibition of PKK at 1.11 μM (human PKK mRNA [2]; Table 32, 1.11 μM)	percent inhibition of PKK at 3.33 μM (human PKK mRNA [2]; Table 32, 3.33 μM)	percent inhibition of PKK at 10.00 μM (human PKK mRNA [2]; Table 32, 10.00 μM)	IC50 (human PKK mRNA [2]; Table 32, PKK mRNA)	% inhibition (human PKK mRNA [1]; [4])	% inhibition (human PKK mRNA [1]; [5])	also measured
486847 (antisense eA*eG*eG*e[5mC]*eA*dT*dA*dT*dT*dG*dG*dT*dT*dT*dT*eT*eG*eG*eA*eA) [compound 486847]	0%	34%	48%	71%	87%	1100 nM			% inhibition (human PKK mRNA [1]; [3]): 78%
530933 (antisense eT*eG*eG*eA*eG*dG*dT*dG*dA*dG*dT*d[5mC]*dT*d[5mC]*dT*eT*eG*eT*e[5mC]*eA) [compound 530933]	15%	13%	42%	67%	66%	1700 nM	76%		
530959 (antisense eT*e[5mC]*eA*eA*e[5mC]*dA*d[5mC]*dT*dG*d[5mC]*dT*dA*dA*d[5mC]*d[5mC]*eT*eT*eA*eG*eA) [compound 530959]	12%	27%	53%	80%	94%	900 nM	60%		
530965 (antisense eG*eG*e[5mC]*eA*e[5mC]*dA*dG*dG*dG*d[5mC]*dT*dT*d[5mC]*dA*dG*eT*eG*eA*eG*eA) [compound 530965]	8%	5%	63%	83%	91%	800 nM	73%		
530967 (antisense e[5mC]*eA*eA*e[5mC]*e[5mC]*dA*dA*dT*dT*dT*d[5mC]*dT*dG*dA*dA*eA*eG*eG*eG*e[5mC]) [compound 530967]	30%	36%	48%	82%	91%	700 nM	69%		
530970 (antisense eT*eT*eG*eG*eT*dG*dT*dG*d[5mC]*d[5mC]*dA*d[5mC]*dT*dT*dT*e[5mC]*eA*eG*eA*eT) [compound 530970]	1%	0%	66%	76%	84%	1000 nM	74%		
530971 (antisense eG*eG*eA*eA*e[5mC]*dT*dT*dG*dG*dT*dG*dT*dG*d[5mC]*d[5mC]*eA*e[5mC]*eT*eT*eT) [compound 530971]	12%	40%	52%	66%	70%	1300 nM	85%		
530988 (eT*e[5mC]*e[5mC]*eA*eA*dA*dG*dT*d[5mC]*dA*dA*d[5mC]*dT*d[5mC]*d[5mC]*e[5mC]*eG*eG*eG*eT; antisense) [compound 530988]	0%	25%	54%	86%	78%	900 nM	76%		
530992 (eG*eT*e[5mC]*eA*e[5mC]*dA*dT*dT*d[5mC]*dA*dA*dT*dT*d[5mC]*dT*eT*e[5mC]*eT*e[5mC]*e[5mC]; antisense) [compound 530992]	0%	50%	63%	83%	80%	700 nM	70%		
531002 (eG*eA*eG*e[5mC]*eT*d[5mC]*d[5mC]*d[5mC]*dT*dT*dG*dT*dG*dT*d[5mC]*e[5mC]*e[5mC]*eA*eT*eA; antisense) [compound 531002]	6%	28%	58%	82%	86%	900 nM	85%		
531004 (eA*eG*eA*eG*eT*dA*dA*d[5mC]*d[5mC]*dA*dG*dA*dG*d[5mC]*dT*e[5mC]*e[5mC]*e[5mC]*eT*eT; antisense) [compound 531004]	0%	14%	25%	71%	84%	2100 nM	76%		
531005 (e[5mC]*eT*e[5mC]*eA*eA*dA*dG*dA*dG*dT*dA*dA*d[5mC]*d[5mC]*dA*eG*eA*eG*e[5mC]*eT; antisense) [compound 531005]	14%	28%	61%	73%	77%	900 nM	76%		
531022 (eG*eT*eA*eA*eT*dG*dT*d[5mC]*dT*dG*dA*d[5mC]*dA*dG*dA*eT*eT*eT*eA*eA; antisense) [compound 531022]	0%	0%	32%	62%	77%	2200 nM			% inhibition (human PKK mRNA [1]; [3]): 74%
531026 (antisense eA*eT*e[5mC]*eA*eT*dG*dA*dT*dT*d[5mC]*d[5mC]*d[5mC]*dT*dT*d[5mC]*eT*eG*eA*eG*eA) [compound 531026]									% inhibition (human PKK mRNA [1]; [3]): 73%; percent inhibition of PKK at 0.12 μM (human PKK mRNA [2]; Table 33, 0.12 μM): 23%; percent inhibition of PKK at 0.37 μM (human PKK mRNA [2]; Table 33, 0.37 μM): 26%; percent inhibition of PKK at 1.11 μM (human PKK mRNA [2]; Table 33, 1.11 μM): 49%; percent inhibition of PKK at 3.33 μM (human PKK mRNA [2]; Table 33, 3.33 μM): 75%; percent inhibition of PKK at 10.00 μM (human PKK mRNA [2]; Table 33, 10.00 μM): 85%; IC50 (human PKK mRNA [2]; Table 33, PKK mRNA): 1000 nM
531055 (antisense e[5mC]*e[5mC]*e[5mC]*eT*eT*d[5mC]*dT*dT*dT*dA*dT*dA*dG*d[5mC]*d[5mC]*eA*eG*e[5mC]*eA*e[5mC]) [compound 531055]									% inhibition (human PKK mRNA [1]; [3]): 68%; percent inhibition of PKK at 0.12 μM (human PKK mRNA [2]; Table 33, 0.12 μM): 3%; percent inhibition of PKK at 0.37 μM (human PKK mRNA [2]; Table 33, 0.37 μM): 28%; percent inhibition of PKK at 1.11 μM (human PKK mRNA [2]; Table 33, 1.11 μM): 64%; percent inhibition of PKK at 3.33 μM (human PKK mRNA [2]; Table 33, 3.33 μM): 76%; percent inhibition of PKK at 10.00 μM (human PKK mRNA [2]; Table 33, 10.00 μM): 81%; IC50 (human PKK mRNA [2]; Table 33, PKK mRNA): 900 nM
531069 (e[5mC]*e[5mC]*eA*eG*eT*d[5mC]*d[5mC]*dA*dT*dG*dT*dA*d[5mC]*dT*d[5mC]*eA*eG*e[5mC]*eG*eA; antisense) [compound 531069]									% inhibition (human PKK mRNA [1]; [3]): 56%; percent inhibition of PKK at 0.12 μM (human PKK mRNA [2]; Table 33, 0.12 μM): 19%; percent inhibition of PKK at 0.37 μM (human PKK mRNA [2]; Table 33, 0.37 μM): 39%; percent inhibition of PKK at 1.11 μM (human PKK mRNA [2]; Table 33, 1.11 μM): 48%; percent inhibition of PKK at 3.33 μM (human PKK mRNA [2]; Table 33, 3.33 μM): 76%; percent inhibition of PKK at 10.00 μM (human PKK mRNA [2]; Table 33, 10.00 μM): 83%; IC50 (human PKK mRNA [2]; Table 33, PKK mRNA): 900 nM
531225 (eA*e[5mC]*eA*e[5mC]*eT*dT*dG*dT*dA*d[5mC]*d[5mC]*d[5mC]*d[5mC]*dA*dT*eA*e[5mC]*eA*eT*e[5mC]; antisense) [compound 531225]								45%	
531226 (eG*eA*e[5mC]*eA*eG*dT*dA*dG*dA*dG*dA*d[5mC]*dT*dG*dG*eG*eA*eA*eG*eG; antisense) [compound 531226]								12%	
531227 (eT*eA*e[5mC]*e[5mC]*eA*dA*dT*dT*dT*d[5mC]*dT*dG*dA*dA*dA*eG*eG*eG*e[5mC]*eA; antisense) [compound 531227]								72%	
531228 (e[5mC]*eA*eG*eA*eG*dT*dA*dA*dA*d[5mC]*dT*d[5mC]*d[5mC]*d[5mC]*d[5mC]*eA*eT*e[5mC]*eT*e[5mC]; antisense) [compound 531228]								33%	
531229 (e[5mC]*eT*eT*e[5mC]*eA*dA*dA*dG*d[5mC]*d[5mC]*dA*dG*d[5mC]*dA*dG*eT*eG*eT*eA*eA; antisense) [compound 531229]								69%	
531230 (e[5mC]*eT*eT*eA*e[5mC]*dT*dG*dG*dG*d[5mC]*dT*dA*dA*dA*dA*eT*e[5mC]*eA*eA*eG; antisense) [compound 531230]								46%	
531237 (eG*eT*eG*eG*eA*dA*dT*dG*dT*d[5mC]*dA*dT*dG*dG*d[5mC]*eA*eA*eT*eT*eT; antisense) [compound 531237]								56%	
